Experiments:
[1] = Stability of crystal forms in sodium phosphate/hydrochloric acid buffer pH=6.8 (37° C.); type: physicochemical; settings: for Purity: pH = 6.8 buffer, 37° C.
Method: 1. Test on Stability of Crystal Forms in Different Media
1.1 Stability of Different Crystal Forms in Sodium Phosphate/Hydrochloric Acid Buffer pH=6.8 (37° C.)

[2] = Affect factor test: related substance and transformation in crystal form (10 days); type: physicochemical; settings: for Purity, High temperature (60° C.) / Purity, High humidity (RH = 92.5%) / Purity, Illumination (ultraviolet lamp): 10 days; for Crystal form: after 10 days at high temperature, high humidity or illumination; for Purity of raw material: before the affect factor test (baseline); for Stability of purity: high temperature, high humidity, or illumination, 10 days later
Text: (§1) 3. Affect Factor Test of Different Crystal Forms
3.1 Related Substance and Transformation in Crystal Form (10 Days)

Hygroscopicity = type: physicochemical
Method: (§2) 3.2 Change in Appearance and Hygroscopicity (10 Days)
Hygroscopicity was measured by reference to methods in Appendix X IX J Laboratory Procedure on Determination of Hygroscopicity of Drugs in Pharmacopoeia of The People's Republic of China (2010).

[3] = system: human colorectal cancer cell SW480; test: MTT proliferation inhibition, SW480; type: cell-based
Text: (§3) The tumor cells included, but were not limited to the following cells: human colorectal cancer cell SW480, human gastric adenocarcinoma cell MGC-803, human […], human lymphoma cell U937, human liver cancer cell Hep-G2, human cervical cancer cell Hela, human neuroglioma cell BT-325, human medulloblastoma D341 Med, and human gallbladder cancer cell GBC-SD.
(§4) Experimental method: cells in exponential growth phase were collected, and seeded to a 96-well cell culture plate, at a final concentration of 5×10^3 cells/90 μl/well. […] After the treatment for 72 h, 10 μl MTT solution (5 mg/ml, Sigma) was added to each well, and the cells were further cultured for 4 h. The culture medium was discarded, 100 μl DMSO was added to each well, and dissolution was carried out under rotation on a shaking table for 10 min.

[4] = system: human gastric adenocarcinoma cell MGC-803; test: MTT proliferation inhibition, MGC-803; type: cell-based; settings: MGC-803, MTT
Text: as §3, §4

[5] = system: human small cell lung adenocarcinoma cell A549; test: MTT proliferation inhibition, A549; type: cell-based
Text: as §3, §4

human lymphoma cell U937 = test: MTT proliferation inhibition, U937; type: cell-based
Text: as §3, §4

[6] = system: human liver cancer cell Hep-G2; test: MTT proliferation inhibition, Hep-G2; type: cell-based
Text: as §3, §4

[7] = system: human cervical cancer cell Hela; test: MTT proliferation inhibition, Hela; type: cell-based; settings: 72 h
Text: as §3, §4

[8] = system: human neuroglioma cell BT-325; test: MTT proliferation inhibition, BT-325; type: cell-based; settings: BT-325, MTT, 72 h
Text: as §3, §4

[9] = system: human medulloblastoma D341 Med; test: MTT proliferation inhibition, D341 Med; type: cell-based; settings: 72 h
Text: as §3, §4

[10] = system: human gallbladder cancer cell GBC-SD; test: MTT proliferation inhibition, GBC-SD; type: cell-based; settings: 72 h
Text: as §3, §4

[11] = Affect factor test: change in appearance (10 days); type: physicochemical
Text: as §1, §2

[12] = Stability of crystal forms in hydrochloric acid solution pH=1.2 (37° C.); type: physicochemical; settings: for Purity: pH = 1.2 hydrochloric acid solution, 37° C.; for Change of purity: stirred in hydrochloric acid medium pH=1.2 for 24 h
Method: 1.2 Stability of Different Crystal Forms in Hydrochloric Acid Solution with pH=1.2 (37° C.)

[13] = 72 h, listed as an amorphous form
[14] = 0 h (baseline), monofumarate monohydrate

C=CCc1cccc(/C=N/NC(=O)CN2CCCN(Cc3ccccc3)CC2)c1O [Amorphous form, orbit azine monofumarate]
Purity ([1]; 0 h (baseline)): 97.980% | Purity ([1]; 4 h): 87.266% | Purity ([1]; 24 h): 85.026% | Purity, High temperature (60° C.) [2]: 95.989% | Purity, High humidity (RH = 92.5%) [2]: 97.537% | Crystal form [2]: converted to Form B under the condition of high humidity | Purity of raw material [2]: 97.980% | Purity, Illumination (ultraviolet lamp) [2]: 96.880% | Hygroscopicity, weight increase/% (Hygroscopicity; 2014 Nov. 17 to 2014 Nov. 24): 118.620% | Hygroscopicity (Hygroscopicity; moisture absorption): significant weight increase | IC50 [3, 13]: 1780 nM | IC50 [4, 13]: 1600 nM | IC50 [5, 13]: 2970 nM | IC50 (human lymphoma cell U937; [13]): 418 nM | IC50 [6, 13]: 8.38 µM | IC50 ([7]; listed as an amorphous form): 5.65 µM | IC50 ([8]; listed as an amorphous form): 2520 nM | IC50 ([9]; listed as an amorphous form): 447 nM | IC50 ([10]; listed as an amorphous form): 6.58 µM

C=CCc1cccc(/C=N/NC(=O)CN2CCCN(Cc3ccccc3)CC2)c1O [Form A, orbit azine monofumarate]
Purity ([1]; 0 h (baseline)): 98.069% | Purity ([1]; 4 h): 87.153% | Purity ([1]; 24 h): 84.864% | Purity, High temperature (60° C.) [2]: 97.665% | Purity, High humidity (RH = 92.5%) [2]: 97.699% | Crystal form [2]: Form A | Purity of raw material [2]: 98.096% | Stability of purity [2]: relatively stable | Purity, Illumination (ultraviolet lamp) [2]: 97.775% | Appearance ([11]; High humidity): white solid | Appearance ([11]; High temperature): white solid | Appearance ([11]; Illumination): white solid | Water absorbability (Hygroscopicity; product of Example 1): no water absorbability | IC50 ([3]; 72 h): 1770 nM | IC50 ([4]; 72 h): 1360 nM | IC50 ([5]; 72 h): 2990 nM | IC50 (human lymphoma cell U937; 72 h): 425 nM | IC50 ([6]; 72 h): 8.41 µM | IC50 [7]: 5.68 µM | IC50 [8]: 2880 nM | IC50 [9]: 433 nM | IC50 [10]: 6.48 µM

C=CCc1cccc(/C=N/NC(=O)CN2CCCN(Cc3ccccc3)CC2)c1O [Form B, orbit azine monofumarate monohydrate]
Degradation in the medium with pH=6.8 ([1]; pH = 6.8, 37° C.): degraded to a slightly less extent | Purity [1, 14]: 98.413% | Purity ([1]; 4 h, monofumarate monohydrate): 93.112% | Purity ([1]; 24 h, monofumarate monohydrate): 90.266% | Extent of degradation compared ([12]; hydrochloric acid medium pH=1.2): degraded to a slightly less extent | Purity [12, 14]: 98.413% | Purity ([12]; 24 h, monofumarate monohydrate): 79.443% | Purity ([12]; 48 h, monofumarate monohydrate): 78.122% | Change of purity [12]: decreased greatly | Purity, High temperature (60° C.) ([2]; monofumarate monohydrate): 97.809% | Purity, High humidity (RH = 92.5%) ([2]; monofumarate monohydrate): 98.176% | Crystal form ([2]; monofumarate monohydrate): Form B | Purity of raw material ([2]; monofumarate monohydrate): 98.413% | Stability of purity [2]: relatively stable | Purity, Illumination (ultraviolet lamp) ([2]; monofumarate monohydrate): 98.116% | Appearance ([11]; High humidity, monofumarate monohydrate): white solid | Appearance ([11]; High temperature, monofumarate monohydrate): white solid | Appearance ([11]; Illumination, monofumarate monohydrate): white solid | IC50 ([3]; 72 h, monofumarate monohydrate): 1980 nM | IC50 ([4]; 72 h, monofumarate monohydrate): 1390 nM | IC50 ([5]; 72 h, monofumarate monohydrate): 2900 nM | IC50 (human lymphoma cell U937; 72 h, monofumarate monohydrate): 495 nM | IC50 ([6]; 72 h, monofumarate monohydrate): 8.32 µM | IC50 ([7]; monofumarate monohydrate): 5.75 µM | IC50 ([8]; monofumarate monohydrate): 2310 nM | IC50 ([9]; monofumarate monohydrate): 430 nM | IC50 ([10]; monofumarate monohydrate): 6.16 µM

C=CCc1cccc(/C=N/NC(=O)CN2CCCN(Cc3ccccc3)CC2)c1O [Form C, orbit azine difumarate]
Purity ([1]; 0 h (baseline)): 94.584% | Purity ([1]; 4 h): 83.292% | Purity ([1]; 24 h): 82.680% | Purity ([12]; 0 h (baseline)): 97.865% | Purity ([12]; 24 h): 72.042% | Purity ([12]; 48 h): 71.017% | Change of purity [12]: decreased greatly | Purity, High temperature (60° C.) [2]: 97.244% | Purity, High humidity (RH = 92.5%) [2]: 97.733% | Crystal form [2]: Form C | Purity of raw material [2]: 97.865% | Purity, Illumination (ultraviolet lamp) [2]: 95.696% | Change of color [11]: turned slightly yellow | Appearance ([11]; High humidity): white solid | Appearance ([11]; High temperature): white solid | IC50 ([3]; 72 h): 1920 nM | IC50 ([4]; 72 h): 1280 nM | IC50 ([5]; 72 h): 3070 nM | IC50 (human lymphoma cell U937; 72 h): 391 nM | IC50 ([6]; 72 h): 8.21 µM | IC50 [7]: 5.49 µM | IC50 [8]: 2650 nM | IC50 [9]: 411 nM | IC50 [10]: 6.37 µM

C=CCc1cccc(/C=N/NC(=O)CN2CCCN(Cc3ccccc3)CC2)c1O [Form D, orbit azine difumarate]
Purity ([1]; 0 h (baseline)): 97.999% | Purity ([1]; 4 h): 85.418% | Purity ([1]; 24 h): 84.552% | IC50 ([3]; Homo sapiens, SW480, 72 h): 1670 nM | IC50 ([4]; Homo sapiens, MGC-803, 72 h): 1450 nM | IC50 ([5]; Homo sapiens, A549, 72 h): 2870 nM | IC50 (human lymphoma cell U937; Homo sapiens, U-937, 72 h): 414 nM | IC50 ([6]; Homo sapiens, HepG2, 72 h): 8.18 µM | IC50 ([7]; Homo sapiens, HeLa): 5.17 µM | IC50 ([8]; Homo sapiens): 2710 nM | IC50 ([9]; Homo sapiens): 484 nM | IC50 ([10]; Homo sapiens): 6.95 µM
